Assay results: US20210205272A1, “DOSING REGIMENS FOR TREATMENT OF SOLID TUMORS HAVING ONE OR MORE GENETIC ALTERATIONS IN FGFR1, FGFR2, AND/OR FGFR3” (DEBIOPHARM INTERNATIONAL, S.A., priority 2018, published 2021)

Experiments:
clinical = details: in vivo
[1] = tested on: advanced solid tumors harboring FGFR 1, 2 or 3 gene alterations; test: Phase I dose escalation Debio 1347-101: tumor response by RECIST 1.1; type: in vivo, human
[2] = tested on: advanced solid malignancies of any histological tumor type harboring an FGFR 1, 2 or 3 fusion; test: Expansion part of Debio 1347-101 phase I study: tumor response by RECIST 1.1; type: in vivo, human; details: 80 mg once daily
Protocol: The primary objective of this expansion phase is to confirm the safety profile at the RP2D of 80 mg once daily.
As of January 2019, two patients achieved a BOR of PR by investigator assessment according to RECIST 1.1 criteria, one suffering from a cholangiocarcinoma harboring a FGFR2-TACC2 fusion and one suffering from a colon cancer harboring a FGFR2-RP11-89K10.1 fusion.

[3] = 10 patients with confirmed FGFR fusions, doses ≥60 mg/day
[4] = confirmed FGFR fusions, doses ≥60 mg/day
[5] = one patient, intrahepatic cholangiocarcinoma, FGFR2 deletion of exon 5

Cc1nc2cc(-n3ncc(C(=O)c4cc5ccccc5[nH]4)c3N)ccc2[nH]1 [Debio 1347, 5-amino-1-(2-methyl-1H-benzo[d]imidazol-5-yl)-1H-pyrazol-4-yl 1H-indol-2-yl ketone]
half-life (clinical; human, po): 690 min
hyperphosphatemia dose relation (clinical): dose-dependent
patients achieving PR [1, 3]: 3 patients
patients achieving disease stabilization [1, 3]: 5 patients
patients with progressive disease ([1]; 57 evaluable patients): 35 patients
patients with stable disease ([1]; 57 evaluable patients): 16 patients
tumor type, FGFR alteration and dose of the six PRs ([1]; 57 evaluable patients): two had urothelial carcinoma (FGFR3 fusion—80, 150 mg), the others uterine (FGFR1 amplified—30 mg), cervical (FGFR2 amplified—80 mg), colon cancer (FGFR1 amplified—110 mg) or cholangiocarcinoma (FGFR2 mutation—110 mg)
patients with partial response (PR), overall ([1]; 57 patients evaluable for tumor response): 6 patients
disease control rate (DCR) overall ([1]; all evaluable patients): 38.6%
response after independent centralized radiological review ([1]; cholangiocarcinoma, FGFR2 mutation, 110 mg): confirmed completed response (CR)
disease control rate (DCR) [1, 4]: 80%
median treatment duration in patients with disease control [1, 4]: 34 weeks
range of treatment duration in patients with disease control [1, 4]: 24-47 weeks
antitumor activity ([1]; mainly FGFR2 or 3 gene alterations incl. fusion/translocation, 80 mg and 110 mg daily): Encouraging antitumor activity
stable disease patients with reduced target lesion size ≤30% at least once on-treatment ([1]; of 16 with stable disease): 10 patients
patients with progressive disease per clinical assessment in absence of radiographic evidence ([1]; of 35 with progressive disease): 13 patients
duration of partial response [1, 5]: up to 48 weeks
response upon independent radiological review [1, 5]: complete response
tumor volume reduction ([2]; cholangiocarcinoma FGFR2-ATAD2 fusion, after 6 weeks of treatment): about 7%
patients with BOR of PR by investigator assessment ([2]; cholangiocarcinoma FGFR2-TACC2 fusion and colon cancer FGFR2-RP11-89K10.1 fusion, as of January 2019): two
best response ([2]; one patient, cholangiocarcinoma FGFR2-ATAD2 fusion): disease stabilization (SD)
drug-related deaths (58 treated patients): no death was considered drug-related
maximum tolerated dose (MTD) (escalated up to 150 mg, ≤2 DLTs at the same dose level): not formally reached
TEAE highest severity grade 1 (human, in vivo): 4 (6.9%) patients
TEAE highest severity grade 2 (human, in vivo): 17 (29.3%) patients
TEAE highest severity grade 3 (human, in vivo): 28 (48.3%) patients
TEAE highest severity grade 4 (human, in vivo): 2 (3.4%) patients
number of serious adverse effects (SAEs) (human, in vivo): 39 SAEs
patients experiencing serious adverse effects (SAEs) (human, in vivo): 20 patients
patients requiring a dose reduction (human, in vivo): 20%
patients requiring a dose reduction after the 28-day DLT period (human, in vivo): 7 out of 9
patients requiring dose modifications due to adverse events (human, in vivo): 30 (51.7%) patients
SAEs deemed possibly study drug related (DLTs) (in vivo): two
TEAEs most often severe (grade >2) (in vivo): hyperphosphatemia, anemia, hyponatremia, and dyspnea
dose reduction required (in vivo): no dose reduction was required at all
most common TEAEs with an incidence ≥25% (in vivo): hyperphosphatemia, diarrhea, nausea, fatigue, constipation, decreased appetite, nail changes, and dry mouth
safety profile (in vivo): tolerable and manageable safety profile
TEAE highest severity grade 5 (of 58 treated patients): 7 (12.1%) patients
patients died from disease progression (of 58 treated patients): 21 patients
